Source: patent publication US20210267918A1, “PHARMACEUTICAL COMBINATION FOR USE IN AGE-RELATED AND/OR DEGENERATIVE DISEASES” (priority 2018, published 2021)
Where a name gives a salt, the structure may show the parent alone. Marks after values point to notes of the source that are not given here.

Assays:
[1] = test system: C. elegans sarcomere myofilaments; test: Quantifying muscle morphology and deterioration (myo-3p::MYO-3::GFP, strain RW1596); format: in vivo, Caenorhabditis elegans; details: late adulthood (day 14)
Excerpt: Sarcomeres are fundamental muscle units, responsible for muscle contraction. C. elegans' sarcomeres consist of alternated filaments containing myosin and actin, similar to sarcomeres of vertebrates. While sarcomere myofilaments in the body wall of young animals are organized in parallel symmetric rows, sarcomere myofilaments in older animals become progressively disorganized with a more irregular shape and orientation.
By using a transgenic reporter strain that has a fusion of myosin heavy chain with fluorescent GFP (strain RW1596; myo-3p::MYO-3::GFP), muscle structure of C. elegans can be visualized in vivo. Combined with confocal microscopy and bioinformatic analysis this offers not only qualitative, but also quantitative readouts for the assessment of the organizational level of muscle fibers. An analytical method to quantify muscle deterioration has been optimized at the laboratory of Prof. Bart Braeckman (UGent; unpublished data). We used this technique to verify whether animals treated with Gal and/or Met, display a muscle phenotype resembling that of younger untreated individuals. […]
For each animal, the two morphological metrics ‘aspect ratio’ and ‘smoothness’ were extracted. […] The aspect ratio is calculated as the ratio of the length of the major axis (=length) and the length of the minor axis (=width) for individual myofilaments within a sarcomere. […]

C. elegans [2] = test: WorMotel-based locomotion tracking (single dosing); format: in vivo, Caenorhabditis elegans; details: for increase in maximal baseline activity compared to the untreated control: baseline = prior to blue light stimulus; for increase in total number of healthy days (locomotion-based health span) versus untreated control: days with activity >15% of mean maximal activity of untreated control
Protocol: (§1) During the ‘single dosing assay’, we used the WorMotel platform for long-term recurrent imaging of C. elegans^3. This semi-automated platform allows for unbiased longitudinal monitoring of C. elegans aging phenotypes, including daily measurements of survival as well as locomotion quantification. From the onset of adulthood, animals were confined to individual wells in screening plates (i.e. microfabricated WorMotel chips prepared as described in^3) that were seeded with E. coli HT115(DE3) as a food source and supplemented with the corresponding compounds at different doses (Table 1). Four replicate screening plates were assayed, with all four tested conditions present on each screening plate (in randomized locations). Animals were kept on the same screening plates for the duration of the experiment (i.e. 30 days). The time of death is determined as the final time of nonzero movement. Note that this imaging platform is incompatible with repeated dosing. We used the statistical software R to construct Kaplan-Meier survival curves, calculate mean and median life span and carry out all related statistical analyses. To compare survival between two conditions, log-rank tests were used (i.e. survdiff function of the survival package, adjusted for multiple comparisons via the Benjamini-Hochberg method). The corresponding p-values are referred to as plog-rank.
(§2) Locomotion of C. elegans is characterized by sinusoidal movements (i.e. body bends), and progressively diminishes during adult life. As in other animals, maintenance of coordinated movement is considered a prime health span parameter^5.
Each imaging period, the mean and maximum locomotion activity before and after a blue light stimulus are quantified (as described in^3). The resulting activity values are termed ‘baseline locomotion’ and ‘stimulated locomotion’, respectively. […] An increase in ‘healthy days’ is indicative for an increase in locomotion-based healthspan. Results were analyzed using one-way and two-way ANOVAs, with the Holm-Sidak correction for multiple comparisons in GraphPad Prism software. All corresponding p-values are referred to as pANOVA.

[3] = test system: wild-type C. elegans N2 strain; test: Life span assay, repeated dosing (manual scoring on NGM agar plates); format: in vivo, Caenorhabditis elegans; details: for Decrease MLS versus combo Met25 + Gal100 / Increase MLS versus untreated control / Max LS / Median LS: repeated dosing; for MLS ± SEM (mean life span): repeated dosing from first day of adulthood; for Max LS: day on which 10% of the animals are still alive; for Median LS: day on which 50% of the animals are still alive
Protocol: (§3) The wild-type C. elegans N2 strain was obtained from the Caenorhabditis Genetic Center (University of Minnesota, USA) and was cultivated at 20° C. on standard nematode growth medium (NGM) seeded with a thin layer of Escherichia coli OP50, unless stated otherwise. Life span of C. elegans was measured analogous to methods described earlier^1,2. The first day of adulthood was always recorded as day 0. FUdR (5-fluoro-2′-deoxyuridine, Sigma-Aldrich) was used in all life span assays to avoid progeny production. Multiple independent assays were carried out. A minimum of 100 animals per condition per assay was used, as to ensure sufficient statistical power.
During the ‘repeated dosing assay’, we followed the standard method in the field (i.e. manual inspection of survival of age-synchronized populations on bacteria-coated agar plates^2), which is robust and technically relatively simple. In short, at the onset of adulthood, animals were transferred to standard NGM assay plates (untreated control) or NGM assay plates supplemented with the corresponding compounds at different doses (Table 1). Animals were transferred to fresh standard NGM assay plates or fresh NGM assay plates supplemented with the corresponding compounds at different doses thrice in the first week and weekly thereafter (for a total duration of 33 days). This dosing schedule is in accordance with standardized protocols from the Caenorhabditis Intervention Testing Program (CITP)^4. Met was added to the NGM prior to autoclaving, whereas Gal was pipetted onto the seeded assay plates (at least two hours prior to transferring animals on to the assay plates). A same volume of liquid was added to all plates, also to plates of the untreated control and Met condition (i.e. mock treatment). Animals that crawled off the assay plates or died of internal hatching were censored. The number of live and dead worms was scored every one to two days.

[4] = test system: wild-type C. elegans N2 strain; test: Life span assay, single dosing (WorMotel platform); format: in vivo, Caenorhabditis elegans; details: for Decrease MLS versus combo Met25 + Gal100 / Increase MLS versus untreated control / Max LS / Median LS / survival compared to the untreated control: single dosing; for MLS ± SEM (mean life span): single dosing at first day of adulthood, pooled assays; for Max LS: day on which 10% of the animals are still alive; for Median LS: day on which 50% of the animals are still alive; for survival compared to the untreated control: log-rank test
Protocol: as §3, §1

C. elegans [5] = test: Camera-based locomotion tracking (repeated dosing); format: in vivo, Caenorhabditis elegans; details: Table 2, day 7 post-reproductive adults; for Cell occupancy ± SEM: squares of 1 mm^2
Excerpt: as §2
To quantify locomotion effects in more detail, we utilized an automated tracking system for C. elegans that is compatible with standard petri plates. The multi-camera tracking system allows for objective quantification of mean locomotion speed, maximal locomotion speed and multiple behavioral parameters via path-based image analysis. The system was utilized similar to Peymen et al^8. Two distinct assays were performed. In a first assay (Table 2), the locomotion effects of Gal, Met and a combination of both compounds was assayed. This allowed to test for synergetic effects between Gal and Met on multiple locomotion parameters. In a second assay (Table 3), we characterized the locomotion effects of the combination of Met with different acetylcholinesterase inhibitors (i.e. Gal, Don and Riv), as well as the combination of Met with the acetylcholinesterase inhibitor-like compound Mem. As such, we were able to test whether there is a class effect of acetylcholinesterase inhibitors as a whole (in combination with Met). Synchronized wild-type animals were grown in the presence of the corresponding compounds at different doses from the L4 stage (i.e. day 0) and FUdR, until the start of the measurement. Animals were re-dosed thrice (at day 2, 4 and 7) via transfer to fresh compound-treated NGM plates. Prior to imaging, for each replicate 20 well-fed living animals were manually transferred from their culture plate to an unseeded NGM plate, and after 5 min transferred to another unseeded NGM plate used for imaging. Image acquisition took place with StreamPix 6 multicamera software (GigE PRO GP11004M camera with KOWA LM16JC10M lens) for 11 min at 2 fps and a constant exposure, after which worms were tracked using custom particle-tracking MATLAB code. For each mobile animal (i.e. an animal that moved for at least 2 min during the imaging period), both mean and maximal locomotion speeds were extracted, as well as the behavioral metrics ‘cell occupancy’ and ‘fraction running’. The latter represents the fraction of time that an animal was detected to be running (as opposed to pausing or turning). Cell occupancy is a metric quantifying the spatial search efficiency of a worm. Cell occupancy values represent the number of unique cells (squares of 1 mm^2) that the worm visited during the imaging period. Both behavioral parameters decline during aging. Experiments were performed in triplicate (or quadruplicate), with 20 worms per condition per replicate. The results were analyzed using multiple t testing, with the Holm-Sidak correction for multiple comparisons, in GraphPad Prism software. The corresponding p-values are referred to as p.

[6] = test system: glutathione S-transferase 4 (gst-4) gene transcription; test: In vivo gene activity assay (gst-4p::GFP reporter); parameters: species or system Caenorhabditis elegans; details: GFP fluorescence; treated from L1 until late L4 stage
Excerpt: The transparent body of C. elegans allows for straightforward and non-invasive measurements of in vivo gene transcription via transgenic fluorescent reporters^9. We measured transcription of the gst-4p::GFP C. elegans GFP reporter to gain insight into the intracellular signaling networks that are affected by Met and/or Gal. Additionally, we tested whether Met and Gal have a synergistic or potentiating effect on activation of gst-4 gene transcription.
The gst-4 gene encodes for the cytoprotective and drug-metabolizing enzyme glutathione S-transferase 4 (GST-4). Gst-4 is a direct target of SKN-1, an ortholog of the mammalian Nuclear Factor E2-Related Factor (Nrf2) protein family that is a key transcription factor involved in the protection against oxidative and xenobiotic stresses. […] In C. elegans aging research, transcriptional activation of gst-4 is often used as a read-out for SKN-1 activity. […] GFP fluorescence was quantified using an automated method, as described earlier^11. In short: JMET69 animals with genotype ls[gst-4(1491 bp)::gfp;unc-119(+)];ls[unc-54^p::mCherry;unc-119(+)] were grown in the presence and absence of drugs (i.e. Met and/or Gal) on NGM plates seeded with E. coli OP50, from the L1 until the late L4 stage, before transfer to a 96 well plate for fluorescence quantification. […]

COc1ccc2c3c1O[C@H]1C[C@@H](O)C=C[C@@]31CCN(C)C2 [Gal 100, Galantamine hydrobromide]
sarcomere aspect ratio versus untreated control (in words) [1]: no significant increases in aspect ratio
increase in maximal baseline activity compared to the untreated control (C. elegans [2]): 15%
increase in total number of healthy days (locomotion-based health span) versus untreated control (C. elegans [2]): +20%
Decrease MLS versus combo Met25 + Gal100 [3]: −12.5% ****
Increase MLS versus untreated control [3]: +6.8% *
MLS ± SEM (mean life span) [3]: 16.87 ± 0.32 days
Max LS [3]: 22 days
Median LS [3]: 17 days
Decrease MLS versus combo Met25 + Gal100 [4]: −3.9% *
Increase MLS versus untreated control [4]: +12.8% ***
MLS ± SEM (mean life span) [4]: 19.63 ± 0.44 days
Max LS [4]: 27 days
Median LS [4]: 20 days
survival compared to the untreated control [4]: significantly increased survival
Fraction running ± SEM (C. elegans [5]): 48 ± 2 ^NS %
Maximal speed ± SEM (C. elegans [5]): 270 ± 17 ^NS μm/s
Mean speed ± SEM (C. elegans [5]): 48 ± 4 ^NS μm/s
Cell occupancy ± SEM (C. elegans [5]): 11 ± 1 ^NS unique areas visited
gst-4 transcription level change compared to the untreated control [6]: +9%

CN(C)C(=N)NC(=N)N.Cl [Met 25, 1,1-Dimethylbiguanide hydrochloride]
sarcomere aspect ratio versus untreated control (in words) [1]: no significant increases in aspect ratio
increase in maximal baseline activity compared to the untreated control (C. elegans [2]): 35%
increase in total number of healthy days (locomotion-based health span) versus untreated control (C. elegans [2]): +14%
Decrease MLS versus combo Met25 + Gal100 [3]: −8.3%
Increase MLS versus untreated control [3]: +11.9% ****
MLS ± SEM (mean life span) [3]: 17.68 ± 0.50 days
Max LS [3]: 23 days
Median LS [3]: 18 days
Decrease MLS versus combo Met25 + Gal100 [4]: −6.7% *
Increase MLS versus untreated control [4]: +9.6% **
MLS ± SEM (mean life span) [4]: 19.08 ± 0.58 days
Max LS [4]: 28 days
Median LS [4]: 20 days
survival compared to the untreated control [4]: significantly increased survival
Fraction running ± SEM (C. elegans [5]): 67 ± 2 %
Maximal speed ± SEM (C. elegans [5]): 262 ± 8 ^NS μm/s
Mean speed ± SEM (C. elegans [5]): 102 ± 5 μm/s
Cell occupancy ± SEM (C. elegans [5]): 28 ± 3 unique areas visited
gst-4 transcription level change compared to the untreated control [6]: +26%
